The record followed here is ChEMBL document CHEMBL1133193, “4-[3-(5,6,7,8-Tetrahydro-5,5,8,8-tetramethyl-2-naphthalenyl)phenyl]benzoic acid and heterocyclic-bridged analogues are novel retinoic acid receptor subtype and retinoid X receptor alpha agonists” (Bioorg Med Chem Lett, 2000).

For orientation: AC50 means the midpoint of the concentration-response curve, whichever way the signal moves. Higher therefore signals weaker potency. The inhibition is the relative decrease from the control value, in per cent. Higher therefore signals strong suppression.

In assay [1] the target is T1, Retinoic acid receptor gamma (Homo sapiens, UniProt P13631).
T1 sequence (P13631 whole entry): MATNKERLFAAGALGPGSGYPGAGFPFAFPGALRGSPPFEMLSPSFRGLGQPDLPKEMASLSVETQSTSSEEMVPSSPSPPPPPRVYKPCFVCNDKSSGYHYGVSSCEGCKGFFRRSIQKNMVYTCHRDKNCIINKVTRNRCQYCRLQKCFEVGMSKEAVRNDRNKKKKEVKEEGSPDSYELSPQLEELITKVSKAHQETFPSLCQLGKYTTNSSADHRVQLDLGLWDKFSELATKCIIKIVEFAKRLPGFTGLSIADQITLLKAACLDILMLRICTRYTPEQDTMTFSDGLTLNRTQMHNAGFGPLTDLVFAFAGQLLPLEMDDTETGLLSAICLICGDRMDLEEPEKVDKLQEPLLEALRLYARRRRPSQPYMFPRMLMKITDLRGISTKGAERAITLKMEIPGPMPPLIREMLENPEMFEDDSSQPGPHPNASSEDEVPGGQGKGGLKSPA
The experiment in a line: Transcriptional activation in CV-1 cells expressing retinoic acid gamma receptor. Format: cell-based, Cercopithecidae.

Assay [2] deals with T2, Retinoic acid receptor RXR-alpha (Homo sapiens, UniProt P19793).
T2 sequence (P19793 whole entry): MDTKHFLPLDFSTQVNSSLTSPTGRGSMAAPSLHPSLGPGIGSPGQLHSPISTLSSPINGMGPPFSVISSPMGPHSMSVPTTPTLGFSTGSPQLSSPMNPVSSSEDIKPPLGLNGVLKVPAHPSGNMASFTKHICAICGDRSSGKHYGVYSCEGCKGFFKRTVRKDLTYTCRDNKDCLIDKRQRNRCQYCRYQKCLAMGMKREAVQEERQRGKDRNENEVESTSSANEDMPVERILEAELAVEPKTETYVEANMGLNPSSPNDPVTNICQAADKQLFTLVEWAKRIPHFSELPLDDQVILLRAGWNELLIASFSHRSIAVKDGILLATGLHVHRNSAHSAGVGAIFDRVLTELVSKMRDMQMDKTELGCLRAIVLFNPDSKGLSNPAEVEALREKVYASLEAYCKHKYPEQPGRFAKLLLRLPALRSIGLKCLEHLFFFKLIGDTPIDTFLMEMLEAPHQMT
The assay can be described thus: Transcriptional activation in CV-1 cells expressing Retinoic acid receptor RXR-alpha. Format: cell-based, Cercopithecidae.

The target in assay [3] is T3, Retinoic acid receptor RXR-alpha (Homo sapiens) (UniProt P19793).
T3 sequence (whole entry): T2 sequence (P19793 whole entry)
The experiment in a line: Percent activation of Retinoic acid receptor RXR-alpha at 1 uM relative to 1 uM 9-cis-retinoic acid.

For assay [4], the target named is T4, Retinoic acid receptor beta (Homo sapiens, UniProt P10826).
T4 sequence (P10826 whole entry): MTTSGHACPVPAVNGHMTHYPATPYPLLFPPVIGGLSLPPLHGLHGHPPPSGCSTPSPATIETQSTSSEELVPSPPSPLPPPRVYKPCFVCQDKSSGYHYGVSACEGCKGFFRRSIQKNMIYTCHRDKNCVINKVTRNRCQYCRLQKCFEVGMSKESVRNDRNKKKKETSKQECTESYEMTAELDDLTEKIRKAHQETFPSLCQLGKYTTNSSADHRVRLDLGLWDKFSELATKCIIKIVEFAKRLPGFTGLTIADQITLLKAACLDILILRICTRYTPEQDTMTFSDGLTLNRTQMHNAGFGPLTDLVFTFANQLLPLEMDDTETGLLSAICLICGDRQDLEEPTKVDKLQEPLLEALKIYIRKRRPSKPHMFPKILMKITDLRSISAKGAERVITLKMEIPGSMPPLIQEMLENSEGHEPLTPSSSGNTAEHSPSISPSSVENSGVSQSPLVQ
The assay can be described thus: Transcriptional activation in CV-1 cells expressing Retinoic acid receptor beta. Format: cell-based, Cercopithecidae.

Assay [5] deals with T5, Retinoic acid receptor alpha (Homo sapiens, UniProt P10276).
T5 sequence (P10276 whole entry): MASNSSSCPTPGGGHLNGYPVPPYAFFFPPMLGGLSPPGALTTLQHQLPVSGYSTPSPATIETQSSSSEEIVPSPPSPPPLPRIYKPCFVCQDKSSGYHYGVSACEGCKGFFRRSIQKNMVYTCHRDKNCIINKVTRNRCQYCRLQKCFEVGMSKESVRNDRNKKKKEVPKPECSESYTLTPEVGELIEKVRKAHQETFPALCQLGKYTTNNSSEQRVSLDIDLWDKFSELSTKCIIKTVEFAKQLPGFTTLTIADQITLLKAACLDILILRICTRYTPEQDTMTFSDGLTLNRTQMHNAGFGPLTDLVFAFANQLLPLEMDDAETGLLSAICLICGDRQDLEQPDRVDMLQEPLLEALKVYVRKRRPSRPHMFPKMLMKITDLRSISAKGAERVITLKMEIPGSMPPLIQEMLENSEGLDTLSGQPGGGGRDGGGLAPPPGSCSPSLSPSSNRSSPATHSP
The assay can be described thus: Transcriptional activation in CV-1 cells expressing Retinoic acid receptor alpha. It counts as cell-based, Cercopithecidae.

Assay [6] relates to T47D. The experiment in a line: Inhibition of T47D retinoid sensitive breast carcinoma cell proliferation at 1 uM. Conditions: Homo sapiens. Format: functional.
In assay [7] the test system is ZR-75-1. The assay can be described thus: Inhibition of ZR-75-1 retinoid sensitive breast carcinoma cell proliferation at 1 uM. Format: functional. The conditions noted are these: Homo sapiens.
The subject of assay [8] is MDA-MB-231. The experiment in a line: Growth of MDA-MB-231 retinoid resistant breast carcinoma cells at 1 uM. The conditions noted are these: Homo sapiens.

Take `Cc1cc2c(cc1-c1ncc(-c3ccc(C(=O)O)cc3)s1)C(C)(C)CCC2(C)C`: the AC50 is 220 nM in assay [1], more than 1000 nM in assay [2], 740 nM in assay [4] and more than 1000 nM in assay [5]. Further, the Activation in assay [3] was found to be 8%.
As for `CC1=C(/C=C/C(C)=C/C=C/C(C)=C/C(=O)O)C(C)(C)CCC1` [TRETINOIN], the inhibition at 1 µM in assay [6] amounted to 39%; in assay [7], 70%. This molecule also yielded a growth relative to control at 1 µM in assay [8] of 94%.
For the molecule `Cc1ccc(-c2ccc(C(=O)O)cc2)cc1-c1cc2c(cc1C)C(C)(C)CCC2(C)C`, the half-maximal activity concentration (AC50) in assay [1] was 1 nM; in assay [2] it was 430 nM; in assay [4], 10 nM; in assay [5], more than 1000 nM. The molecule also gave an Activation in assay [3] of 70%.
Turning to `CC1=C(/C=C/C(C)=C\C=C\C(C)=C\C(=O)O)C(C)(C)CCC1` [ALITRETINOIN], the inhibition at 1 µM in assay [6] is 35%; in assay [7], 59%. Also, the growth relative to control at 1 µM in assay [8] is 69%.
As for `CC1(C)CCC(C)(C)c2cc(-c3cccc(-c4ccc(C(=O)O)cc4)n3)ccc21`, the AC50 in assay [1] was more than 1000 nM; in assay [2] it was more than 1000 nM; in assay [4] it was 140 nM; in assay [5], 370 nM. The molecule also had an Activation in assay [3] of 17%.
As to `Cc1ccc(-c2ccc(C(=O)O)cc2)cc1-c1ccc2c(c1)C(C)(C)CCC2(C)C`, the AC50 in assay [1] was less than 1 nM; in assay [2], 135 nM; in assay [4], less than 1 nM; in assay [5], 79 nM. Further, the Activation in assay [3] worked out at 85%. In addition, the figures for the inhibition at 1 µM in assay [6] and in assay [7] were 35% and 49%, respectively. In assay [8], this molecule registered a growth relative to control at 1 µM of 75%.
As for `C/C(=C\c1ccc(C(=O)O)cc1)c1ccc2c(c1)C(C)(C)CCC2(C)C`, in assay [2], the half-maximal activity concentration (AC50) is more than 1000 nM. Further, in assay [3], the Activation worked out at 0%.
On to `CC1(C)CCC(C)(C)c2cc(-c3ccc4cc(C(=O)O)ccc4c3)ccc21`, for which the AC50 in assay [1] is 68 nM; in assay [2] it was more than 1000 nM; in assay [4], 52 nM; in assay [5] it was more than 1000 nM. The Activation in assay [3] was found to be 0%.
As for `CC1(C)CCC(C)(C)c2cc(-c3cccc(-c4ccc(C(=O)O)cc4)c3)ccc21`, the concentration at half-maximal activity (AC50) was 2.3 nM in assay [1], more than 1000 nM in assay [2], 4.3 nM in assay [4] and 1 nM in assay [5]. Further, the Activation in assay [3] was 27%. The values for the inhibition at 1 µM in assay [6] and in assay [7] were 32% and 47%, respectively. Besides, the growth relative to control at 1 µM in assay [8] worked out at 80%.
Consider `Cc1cc2c(cc1-c1cccc(-c3ccc(C(=O)O)cc3)n1)C(C)(C)CCC2(C)C`, for which the AC50 in assay [1] was 1000 nM; in assay [2], more than 1000 nM; in assay [4], more than 1000 nM; in assay [5], more than 1000 nM. In assay [3], this molecule returned an Activation of 0%.
